In US20060275510A1, “Formulations for menopausal syndromes” (Hong Kong Jockey Club Institute of Chinese Medicine Limited, priority 2005, published 2006):

How the values were obtained:
Type in all cases: in vivo
[1] = tested on: ovariectomized hamsters; assay: Serum [non-HDL]/[HDL] ratio and kidney cholesterol in ovariectomized hamsters; conditions: Positive control, 17β Estradiol 21 day release 0.5 mg/pellet
Method: Animals: hamsters, female, weighed 100 g, bred at the Laboratory Animal Services Center (LASEC) of the Chinese University of Hong Kong, randomly divided into 6 groups.
Dose: 0.5 mg/pellet, catalogue no.: E121 • The sham operated group: hamsters received the operation but not ovariectomy. Method:
47 hamsters weighed 100 g were divided into 6 groups including the positive group, negative group, sham operated and 3 dosage groups (low, medium and high). All hamsters except those in the sham operated group received ovariectomy. A month after the ovariectomy operation, all hamsters were administered intragastrically with drugs and doses indicated above, once a day for consecutive 4 weeks. […] The non-HDL/HDL ratio in serum was analyzed according to See Ho K K W, Leung L K, Chan F L, Huang Y, Chen Z Y (2003).
The hamsters received administration intragastrically for another 4 weeks prior to killing by nitrogen narcosis. The cholesterol level in kidney was measured by gas chromatography.
300 mg of the kidney and 1 mg of the internal standard (IS), stigniastanol (Sigma, S-4297) was homogenized using Polytron homogenizer in 15 ml chloroform-methanol (2:1, v/v) and 3 ml 0.9% saline. […] The TMS-ether derivative was analyzed in a fused silica capillary column (SAC™-5, 30 m×0.25 mm, i.d.; Supelco, Inc., Bellefonte, Pa., USA) in a Shimadzu GC 14B GLC equipped with a flame-ionization detector (Shimadzu). […]

[2] = tested on: ovariectomized hamsters; assay: Ferric Reducing Ability of Plasma (FRAP) in ovariectomized hamsters; conditions: Positive control
Description: The higher the anti-oxidation level, the more Fe^2+ ions are reduced from Fe^3+ ions. See Benzie I F and Szeto Y T (1999).
47 female hamsters, weighed about 100 g, bred at the Laboratory Animal Services Center (LASEC) of the Chinese University of Hong Kong, were randomly divided into 6 groups.
Apparatus: • UV-visible spectrophometer: manufacturer Shimadzu, product code: UV-1601
Method: 47 female hamsters weighed 100 g were divided into 6 groups, including three test groups 1, 2, and 3, the positive control group 4, the negative control group 5, and the sham operated group 6.
The hamsters in groups 1-5 were ovariectomized. A month afterwards, the hamsters in groups 1-6 were administered intragastrically with the drugs and doses indicated above, once every day for consecutive 4 weeks. After 4 weeks of administration, blood samples were obtained from the orbital venous sinus, and were subjected to centrifugation at 10,000 rpm for 10 minutes to collect serum. 10 μl of serum was diluted with 490 μl double distilled water. 300 μl freshly prepared FRAP reagent was then added to initiate the reaction. The samples were placed under 593 nm to observe the changes of absorbance during the first 10 minutes of the reduction of Fe^3+ to Fe^2+. The increase in absorbance is an indicator of the level of reduction. The Ferric Reducing Ability of Plasma (FRAP) values were determined as follows: […]

[3] = tested on: KM mice; assay: Step through test on normal mice (ethanol-induced memory impairment); conditions: oral 14 days: Composition I 14 g (crude herb)/kg/day, Huperzine A 1.5 ug/kg/day
Description: A Step Through Test Box for Mouse with a light room and a dark room inside is provided. The mice are placed in the light room with their back facing the door. When the mice come out from the light room and enter the dark room, they get shocked, such behavior is called an error reaction. The first duration before an error reaction occurs after a mouse is placed in the box is called the latency period. Mice bearing better memories have longer latency period and commit less error reactions in a certain period of time.
Agents that are able to increase the latency period and reduce error reactions of mice in the Step Through Test Box are deemed effective in improving the memory of animals. Reference: Xu S Y (1991), Chen Q (1996), Zhang J T. (1998), Yang J, Want J. et al (2000), and Zhu X D and Tang X C.
Animals: KM mice, female, 18-20 g, purchased from Shanghai Experimental Animal Center of the Chinese Academy of Sciences.
Thirty normal female mice weighed between 18-20 g were randomized into 3 groups of 10: negative control, positive control (Huperzine A) and the test group. The mice were administered orally with the above-indicated doses and drugs, once a day for 14 days. An hour after the last administration (day 14), all the mice were orally given 45% ethanol (0.1 ml/10 g). 30 minutes later, the mice were placed in the light room of the test box with their back facing the door. When the mice entered the dark room and got shocked, the latency period was recorded (the 1st latency period). The test was conducted again 24 hours later, wherein the number of mice entering the dark room (error reaction) and the latency period (the 2nd latency period) were recorded.

[4] = tested on: KM mice; assay: Step-down test on normal mice (scopolamine); conditions: n = 10 mice, oral 14 days: Composition I 14 g (crude herb)/kg/d, Huperzine A 1.5 ug/kg/d
Description: A step-down recorder, comprising a platform and a copper floor, is provided. The mice were placed on the copper floor. When the cooper floor is electrified, the normal reaction of the mice is to jump up to the platform to avoid the electric shock. After a period of time, the mice may forget about the shock and jump back to the floor. This jumping back to the floor is an “error reaction”. The mice that jump back to the floor received electric shock again and would jump back to the platform again. The duration between the first jump up (to the platform) and back (to the floor) is called the “latency period”. The number of jumping backs (error reactions) in a certain period of time could serve as an indicator of the memory of the mice.
Based on the Principle, agents that are able to reduce the error reactions of mice in a certain period of time and […] the latent period are deemed effective in memory improvement. Xu S Y. (1991), Chen Q. (1996), Zhang J T. (1998),Yang J, Wang J, et al. (2000).
Code: YLS-2 T, purchased from Facility station of Shandong Academy of Medical Science Method:
Thirty normal female mice were randomized into 3 groups of 10: negative control, positive control (Huperzine A) and the test group. Mice in the three groups received respective drugs and doses orally as indicated above, once per day for consecutive 14 days. An hour after the last administration, all the mice were administrated with 2 mg/kg scopolamine intraperitoneally. 30 minutes later, the mice were placed in the step down recorder for 5 minutes for pre-adaptation. After the pre-adaptation, the copper floor was electrified for 5 minutes. The number of electric shocks each mouse received in the 5 minutes was recorded. After 24 hours, the test was conducted again.
The number of shocked mice, the latency period of each mouse, and the average number of error reactions in 3 minutes were recorded.

[5] = tested on: ovariectomized rats; assay: Serum estrogen and progesterone levels (RIA), uterus weight and visceral index in ovariectomized rats; conditions: ovariectomized SD rats, 28 days once daily, n = 6
Protocol: Female hormone stimulates estrogen in overiectomized female mice/rats.
SD rats, female, weighted between 220-250 g before administration, purchased from Shanghai Sino-British Sippr/BK LAB Animal Ltd., randomly split into 5 groups.
• Negative control group: 0.9% saline • Positive control group: • 1. Estradiol Benzoate, purchased from Shanghai No. 9 Pharmaceutical Ltd. Dose: 0.01 mg/kg weight/day • 2. ZuoGuiWan, purchased from Shanghai Leiyunshang Fengbang Pharmaceutical Co., Ltd. • 3. GengNianAn, purchased from Zhongxin Pharmacy Tianjin Leren Tang Pharmaceutical Factory. […] Dose: 1.0 ml/100 g weight/day • Positive control group: • 1. Estradiol Benzoate, Dose: […] dissolved in peanut oil (0.01 mg/ml). • 2. ZuoGuiWan, Dose: 7 g/kg weight/day dissolved in 0.5% CMC—Na, • 3. GengNianAn, Dose: 6 g/kg weight/day dissolved in 0.5% CMC—Na, • 5.
Thirty ovariectomized female SD rats weighed between 220.0-250.0 g were randomized into 5 groups: the negative control group, the positive control group, comprising 1. Estradiol Benzoate group, 2. ZuoGuiWan group, 3. GengNianAn group, and the test group. The rats in the negative control, ZuoGuiWan, GengNianAn and the test groups received respective drug and dose as indicated intragastrically. The rats in Estradiol Benzoate were injected with estradiol at the above-indicated dose. All rats received administration once everyday for consecutive 28 days. During the 28 days, a daily pap smear was performed before drug administration. Twenty-four hours after the last administration, all of the rats were weighed, anesthetized, blood withdrawn and killed. The uterus was then removed and half of the uterus was weight in wet. The other half of the uterus was dried for 8 hours in an oven for the measurement of dried weight. The serum estrogen and progesterone levels were determined using radioimmunoassay (RIA) method.

[6] = tested on: pentobarbital sodium-injected mice; assay: Sleeping test (pentobarbital sodium-induced sleep); conditions: female KM mice; oral; Composition I 56 g (crude herb)/kg/d 14 days, Diazepam 0.5 mg/kg once on day 14; pentobarbital sodium 35 mg/kg i.p. 1 h after last dose
Protocol: According to Xu S Y. (1991 ), Chen Q. (1996 ), Zhang J T. (1998 ), Zhu X D. and Tang X C. (1998 ), an agent is deemed to have sedative and hypnotic effects if it can prolong the duration of the sleep, as indicated by the disappearance of right reflex, of pentobarbital sodium-injected mice
Drug, dose, and the administration formulation: • For negative control group: 0.9% saline. • For positive control group: Diazepam, purchased from BangNing Pharmaceutical Co. Ltd. The dose was 0.5 mg/kg weight/d. […] The dose was 56 g (crude herb)/kg weight/d. […] Method:
Thirty normal female mice weighed between 18-20 g were randomized into 3 groups of 10: the negative control group, the positive control group, and the test group. For the negative control and testing group, the drugs were administered to the mice orally with the doses and formulations indicated, once per day for consecutive 14 days. For the positive control group, the drug was given on the day fourteen orally. One hour after the last administrations, all mice were injected with 35 mg/kg of pentobarbital sodium intraperitoneally. The duration of the disappearance of righting reflex was observed and recorded. According to Zhang J T. (1998 ), the duration of the disappearance of righting reflex equals to the sleeping time.

[7] = tested on: ovariectomized mice; assay: Dark-light box test on ovariectomized mice; conditions: within 10 minutes, oral, Composition I 14 g (crude herb)/kg/d 14 days, Diazepam 1.0 mg/kg once on day 14, 1 h after last dose
Protocol: The same experiment of Example 5 was conducted on ovariectomized mice. […] See Xu S Y. (1991), Chen Q. (1996), Zhang J T. (1998).
Apparatus: Same as Example 5.
Animals: Same as Example 5.
Negative control group: 0.9% saline,
Positive control group: Diazepam, 1.0 mg/kg weight
Thirty female mice were anaesthetized by intraperitoneal injection with 35 mg/kg Pentobarbital Sodium. Two cuts were made on the back of the rats, each cut being 1.5 cm from the spine. The two ovaries were taken from the two cuts, respectively. The cuts were then sealed. 1 week after the ovariectomization, the 30 mice were randomly divided into 3 groups, and the same administration procedures as Example 5 were followed, using drugs and doses specified above. 1 hour after the last administration on day fourteen, all the mice were placed in the Shimada light and dark box.

[8] = tested on: KM mice; assay: Open field test (spontaneous activity); conditions: female KM mice; oral; Composition I 14 g (crude herb)/kg/d 14 days, Diazepam 1.0 mg/kg once on day 14
Method: KM mice, females, weighed between 18-20 g, purchased from Shanghai Experimental Animal Center, the Chinese Academy of Sciences.
• Multi-functional Auto-Motion Recorder for Mouse/Rat: manufactured by Facility Station of Shandong Academy of Medical Science. Product code: YLS-1B.
Drug, dose, and the administration formulation: • For negative control group: 0.9% saline. • For positive control group: Diazepam as described above. The dose was 1.0 mg/kg weight/d. […] The dose was 14 g (crude herb)/kg weight/d. […] Method:
Thirty normal female mice weighed between 18-20 g were randomized into 3 groups of 10: negative control, positive control and the test group. For the negative control and testing group, the drugs were administered to the mice orally with the doses and formulations described above, once per day for consecutive 14 days. For the positive control group, the drug was given on the day fourteen orally. One hour after the last administration, the mice were individually placed into a box with infrared detection light to record their spontaneous activities in 3 minutes.

[9] = tested on: ovariectomized rats; assay: Elevated plus-maze test on ovariectomized rats; conditions: oral, Composition I 14 g (crude herb)/kg/d 14 days, Diazepam 0.5 mg/kg once on day 14, 1 h after last dose
Method: SD rats, female, weighed 230-250 g, purchased from Shanghai Experimental Animal Center, the Chinese Academy of Sciences.
• For negative control group: 0.9% saline. • For positive control group: Diazepam as described above. The dose was 0.5 mg/kg weight. • For test group: Composition as prepared in Experiment 1. The dose was 14 g (crude herb)/kg weight/d. Method:
Thirty female rats were divided into the above-mentioned 3 groups randomly and were anaesthetized by intraperitoneal injection with 60 mg/kg Pentobarbital Sodium. Two cuts were made on the back of the rats, each cut being 1.5 cm from the spine. The two ovaries were taken from the two cuts, respectively. The cuts were then sealed. The drug administration began 1 week after the ovariectomization. […] The rats in the positive control group received Diazepam orally only once on day fourteen. 1 hour after the last administration, the rats were placed in a maze.

[10] = tested on: normal female mice; assay: Dark-light box test on normal mice; conditions: within 10 minutes, oral, Composition I 56 g (crude herb)/kg/d 14 days, Diazepam 1.0 mg/kg once on day 14, 1 h after last dose
Protocol: In the experiment, mice were placed in Shimada light and dark box. The times of mice shuttling between the boxes and the duration of mice staying in the dark/light box were recorded.
• Shimada light and dark box: size: 40 cm×40 cm×12 cm, having a light box (20 cm×20 cm×12 cm) at the center, and two dark boxes (10 cm×10 cm×12 cm) at two diagonal corners. Two L-shaped tracks are connected to two sides of each dark box. Manufacturer: Shanghai Institute of Pharmaceutical Industry. Animals:
Thirty normal female mice weighed between 18-20 g were randomized into 3 groups of 10: negative control, positive control (Diazepam) and the test group. The mice in the negative and test groups were administered orally with respective drugs and doses as indicated above, once a day for consecutive 14 days. The mice in the positive control group received only one dose orally as indicated above on day fourteen. 1 hour after the last administration on day fourteen, all the mice were placed in the Shimada light and dark box.

[11] = The second test (24 h later), 45% ethanol
[12] = 5 minutes pre-adaptation (first test), scopolamine 2 mg/kg i.p.
[13] = 24 hours after scopolamine administration
[14] = Composition I 7 g (crude herb)/kg/day i.g., ZuoGuiWan 7 g/kg/day, GengNianAn 6 g/kg/day, Estradiol Benzoate 0.01 mg/kg/day injected

## C[C@]12CC[C@@H]3c4ccc(O)cc4CC[C@H]3[C@@H]1CC[C@@H]2O [17β Estradiol]
[1]
  Kidney cholesterol: 3.5 ± 0.4 mg/g
[2]
  Percentage of FRAP value remained after 4 weeks of treatment: 88.32 ± 21.06 (p = 0.17) %

## C/C=C1\[C@H]2C=C(C)C[C@]1(N)c1ccc(=O)[nH]c1C2 [Huperzine A]
[3]; The first test, 45% ethanol 0.1 ml/10 g orally
  The 1st latency period: 19.3 ± 16.16
[3]; [11]
  No. of error reactions: 1.4 ± 2.0
  The 2nd latency period: 196.2 ± 121.9
[4]; [12]
  Number of shocks per mouse: 5.7 ± 2.7
  Total number of shocks: 51
[4]; [13]
  First step down latency period: 200.6 ± 137.2 s
  Number of error reactions in 3 minutes: 8
  Number of shocked mice: 5

## C[C@]12CC[C@@H]3c4ccc(OC(=O)c5ccccc5)cc4CC[C@H]3[C@@H]1CC[C@@H]2O [Estradiol Benzoate]
[5]; [14]
  Serum Estrogen: 33.00 ± 21.76 ng/mL
  Serum Progesterone: 25.85 ± 6.15 ng/mL
[5]; doses as for serum levels
  Visceral Index: 0.246 ± 0.030 g/100 g BW
  Wet weight of uterus: 0.597 ± 0.064 g

## CN1C(=O)CN=C(c2ccccc2)c2cc(Cl)ccc21 [Diazepam]
[6]
  Sleeping Time: 2927.8 ± 1061.2 s
[7]
  Shuttle Time: 20.5 ± 10.7 (p = 0.874)
  Time spent in dark box: 47.4 ± 31.9
[8]
  Locomotion times during the 3 minutes, 1 hour after drug: 61.0 ± 11.6
  Locomotion times during the 3 minutes, 3 hour after drug: 46.2 ± 11.3
[9]
  Time spent in open arm × 100% / Time spent in both arms: 6 ± 7%
  Times of entering open arm × 100% / Times of entering both arms: 12 ± 11%
[10]
  Shuttle Time: 76.1 ± 8.90
  Time spent in dark box: 166.6 ± 45.05
